pIC50: −log10 of the molar value. Where a name gives a salt, the structure may show the parent alone. Read-outs that look alike come from different tables or passages of the source.
Legend:
HTT mRNA = assay: Splicing RT-qPCR assay, HTT canonical (CJ) and alternative (AJ) junction mRNA; assay type: cell-based, human; settings: Homo sapiens; for pIC50: canonical junction mRNA; for AC50: alternative junction mRNA, read-out: HTT AJ (AC50, increase in AJ mRNA)
Protocol: (§1) Compounds described herein were used to modulate RNA transcript abundance in cells. The expression of a target mRNA was measured by detecting the formation of an exon-exon junction in the canonical transcript (CJ). A compound mediated exon-inclusion event was detected by observing an increase in formation of a new junction with an alternative exon (AJ). Real-time qPCR assays were used to detect these splicing switches and interrogate the potency of various compounds towards different target genes. A high-throughput real time quantitative PCR (RT-qPCR) assay was developed to measure these two isoforms of the mRNA (CJ and AJ) for exemplary genes, such as HTT, SMN2, and MYB, together with a control housekeeping gene, GAPDH or GUSB or PPIA, used for normalization. Briefly, the A673 or K562 cell line was treated with various compounds described herein (e.g., compounds of Formula (D). After treatment, the levels of the HTT, MYB, or SMN2 mRNA targets were determined from each sample of cell lysate by cDNA synthesis followed by qPCR.
(§2) • Cells-to-CT 1-step kit: ThermoFisher A25602, Cells-to-CT lysis reagent: ThermoFisher 4391851C, TaqMan™ Fast Virus 1-Step Master Mix: ThermoFisher 4444436 • GAPDH: VIC-PL, ThermoFisher 4326317E (Assay: Hs99999905_m1)—used for K562/suspension cell lines • GUSB: VIC-PL, ThermoFisher 4326320E (Assay: Hs99999908_m1)—used for K562/suspension cell lines • PPIA: VIC-PL, ThermoFisher 4326316E (Assay: Hs99999904_m1)—used for A673/adherent cell lines
(§3) The A673 cell line was cultured in DMEM with 10% FBS. Cells were diluted with full growth media and plated in a 96-well plate (15,000 cells in 100 ul media per well). The plate was incubated at 37° C. with 5% CO2 for 24 hours to allow cells to adhere. An 11-point 3-fold serial dilution of the compounds was made in DMSO then diluted in media in an intermediate plate. Compounds were transferred from the intermediate plate to the cell plate with the top dose at a final concentration of 10 uM in the well. Final DMSO concentration was kept at or below 0.25%. The cell plate was returned to the incubator at 37° C. with 5% CO2 for an additional 24 hours.
(§4) The K562 cell line was cultured in IMDM with 10% FBS. For K562, cells were diluted with full growth media and plated in either a 96-well plate (50,000 cells in 50 uL media per well) or a 384-well plate (8,000-40,000 cells in 45 uL media per well). An 11-point 3-fold serial dilution of the compounds were made in DMSO then diluted in media in an intermediate plate. Compound was transferred from the intermediate plate to the cell plate with the top dose at a final concentration of 10 uM in the well. Final DMSO concentration was kept at or below 0.25%. Final volume was 100 uL for 96-well plate and 50 uL for 384-well plate. The cell plate was then placed in an incubator at 37° C. with 5% CO2 for 24 hours.
(§5) The cells were then gently washed with 50 uL-100 uL cold PBS before proceeding to addition of lysis buffer. 30 uL-50 μL of room temperature lysis buffer with DNAse I (and optionally RNAsin) was added to each well. Cells were shaken/mixed thoroughly at room temperature for 5-10 minutes for lysis to take place and then 3 uL-5 μL of room temperature stop solution was added and wells were shaken/mixed again. After 2-5 minutes, the cell lysate plate was transferred to ice for RT-qPCR reaction setup. The lysates could also be frozen at −80° C. for later use.
(§6) In some cases, a direct lysis buffer was used. An appropriate volume of 3× lysis buffer (10 mM Tris, 150 mM NaCl, 1.5%-2.5% Igepal and 0.1-1 U/uL RNAsin, pH 7.4) was directly added to either K562 or A673 cells in media and mixed by pipetting 3 times. The plates were then incubated at room temperature with shaking/rocking for 20-50 minutes to allow for lysis to take place. After this time, the cell lysate plate was transferred to ice to set up for the RT-qPCR reactions. The lysates could also be frozen at −80° C. for later use. […]

MYB mRNA = assay: Splicing RT-qPCR assay, MYB canonical (CJ) and alternative (AJ) junction mRNA; assay type: cell-based, human; settings: Homo sapiens; for pIC50: canonical junction mRNA; for AC50: alternative junction mRNA, read-out: MYB AJ (AC50, increase in AJ mRNA)
Protocol: as §1, §2, §3, §4, §5, §6

Target C mRNA = assay: Splicing RT-qPCR panel, Target C canonical junction (CJ) mRNA; assay type: cell-based, human; settings: Homo sapiens, read-out: Target C CJ (decrease in CJ mRNA levels, IC50)
Protocol: as §1, §3, §4, §5
In some cases, a direct lysis buffer was used. An appropriate volume of 3× lysis buffer (10 mM Tris, 150 mM NaCl, 1.5%-2.5% Igepal and 0.1-1 U/uL RNAsin, pH 7.4) was directly added to either K562 or A673 cells in media and mixed by pipetting 3 times. The plates were then incubated at room temperature with shaking/rocking for 20-50 minutes to allow for lysis to take place. After this time, the cell lysate plate was transferred to ice to set up for the RT-qPCR reactions. The lysates could also be frozen at −80° C. for later use.
To set up 10 uL RT-qPCR reactions, cell lysates were transferred to 384-well qPCR plates containing the master mix according to the table below. The plates were sealed, gently vortexed, and spun down before the run. The volumes were adjusted accordingly in some instances where the reaction was carried in 20 μL. The table below summarizes the components of the RT-qPCR reactions:
The RT-qPCR reaction was performed using a QuantStudio (ThermoFisher) under the following fast cycling conditions. […]

K562 cells = assay: Cell viability, Cell Titer Glo 2.0 assay, K562; settings: 72 hours
[1] = 24 h, RT-qPCR, A673 or K562 cells, 24 hours treatment, read-out: HTT CJ (IC50, decrease in CJ mRNA)
[2] = qPCR panel, read-out: HTT CJ (decrease in CJ mRNA levels, IC50)
[3] = RT-qPCR, A673 or K562 cells, 24 hours treatment
[4] = qPCR panel, read-out: MYB CJ (decrease in CJ mRNA levels, IC50)
[5] = RT-qPCR, A673 or K562 cells, 24 hours treatment, read-out: MYB CJ (IC50, decrease in CJ mRNA)

SMILES	pIC50 (HTT mRNA; [1])	pIC50 (HTT mRNA; [2])	pIC50 (MYB mRNA; [4])	pIC50 (MYB mRNA; [5])	pIC50 (Target C mRNA)	AC50 (HTT mRNA; [3])	AC50 (MYB mRNA; [3])	Effect on Cell Viability, K562 (K562 cells)	pIC50 (HTT mRNA; RT-qPCR, A673 or K562 cells, 24 hours treatment, read-out: HTT CJ (IC50, decrease in CJ mRNA))
Cn1cc2cc(-c3cc(Cl)c4cc(N5CCNC6(CC6)C5)cnc4n3)cc(F)c2n1 [Compound 382]	5.00 to 6.00	5.00 to 6.00	6.00 to 7.00	6.00 to 7.00	< 5.00	> 10000 nM	100 to 1000 nM	C (1000-9999 nM)	–
Cc1c(O)c(-c2cc(Cl)c3cc(N4C[C@@H]5CCCN(C)[C@@H]5C4)cnc3n2)cc2cn(C)nc12 [Compound 375]	< 5.00	< 5.00	6.00 to 7.00	6.00 to 7.00	< 5.00	> 10000 nM	100 to 1000 nM	B (100-1000 nM)	–
Cc1c(O)c(-c2cc(C3CC3)c3cc(N4C[C@H](C)N[C@@H](C)C4)cnc3n2)cc2cn(C)nc12 [Compound 377, 5-{4-cyclopropyl-6-[(3S,5S)-3,5-dimethylpiperazin-1-yl]-1,8-naphthyridin-2-yl}-2,7-dimethylindazol-6-ol]	6.00 to 7.00	6.00 to 7.00	> 7.00	> 7.00	5.00 to 6.00	100 to 1000 nM	< 100 nM	B (100-1000 nM)	–
Cl.Cn1cc2cc(-c3cc(Cl)c4cc(N5CC[C@H](NCCF)C5)cnc4n3)c(O)cc2n1 [Compound 389]	–	5.00 to 6.00	6.00 to 7.00	6.00 to 7.00	5.00 to 6.00	1000 to 10000 nM	< 100 nM	B (100-1000 nM)	5.00 to 6.00
C[C@@H]1CN(c2cnc3nc(-c4cc5cn(C)nc5cc4O)cc(Cl)c3c2)CC2(CC2)N1 [Compound 378]	5.00 to 6.00	5.00 to 6.00	6.00 to 7.00	6.00 to 7.00	< 5.00	> 10000 nM	100 to 1000 nM	B (100-1000 nM)	–
Cc1c(O)c(-c2cc(Cl)c3cc(N4C[C@H](C)N[C@@H](C)C4)cnc3n2)cc2cn(C)nc12 [Compound 232, 5-{4-chloro-6-[(3S,5S)-3,5-dimethylpiperazin-1-yl]-1,8-naphthyridin-2-yl}-2,7-dimethylindazol-6-ol]	> 7.00	> 7.00	> 7.00	> 7.00	6.00 to 7.00	< 100 nM	< 100 nM	A (<100 nM)	–

Continued, in another order:

pIC50 (HTT mRNA; [1])	pIC50 (HTT mRNA; [2])	pIC50 (MYB mRNA; [4])	pIC50 (MYB mRNA; [5])	pIC50 (Target C mRNA)	SMILES	AC50 (HTT mRNA; [3])	AC50 (MYB mRNA; [3])	Effect on Cell Viability, K562 (K562 cells)	pIC50 (HTT mRNA; RT-qPCR, A673 or K562 cells, 24 hours treatment, read-out: HTT CJ (IC50, decrease in CJ mRNA))
6.00 to 7.00	6.00 to 7.00	> 7.00	> 7.00	5.00 to 6.00	Cn1cc2cc(-c3cc(Cl)c4cc(N5CC[C@@H](NCCF)C5)cnc4n3)c(O)cc2n1 [Compound 387, 5-{4-chloro-6-[(3R)-3-[(2-fluoroethyl)amino]pyrrolidin-1-yl]-1,8-naphthyridin-2-yl}-2-methylindazol-6-ol hydrochloride]	100 to 1000 nM	< 100 nM	B (100-1000 nM)	–
5.00 to 6.00	5.00 to 6.00	6.00 to 7.00	6.00 to 7.00	5.00 to 6.00	Cc1cn2nc(-c3cc(Cl)c4cc(N5CCNC6(CC6)C5)cnc4n3)cc(C)c2n1 [Compound 383]	1000 to 10000 nM	100 to 1000 nM	C (1000-9999 nM)	–
5.00 to 6.00	5.00 to 6.00	6.00 to 7.00	6.00 to 7.00	< 5.00	Cn1cc2cc(-c3cc(Cl)c4cc(N5CC[C@@H](N6CCC6)C5)cnc4n3)c(O)cc2n1 [Compound 386]	1000 to 10000 nM	100 to 1000 nM	B (100-1000 nM)	–
5.00 to 6.00	5.00 to 6.00	6.00 to 7.00	6.00 to 7.00	5.00 to 6.00	Cc1cn2nc(-c3ccc4c(Cl)c(N5C[C@@H](C)N[C@@H](C)C5)cnc4n3)cc(C)c2n1 [Compound 392]	1000 to 10000 nM	100 to 1000 nM	B (100-1000 nM)	–
6.00 to 7.00	6.00 to 7.00	> 7.00	> 7.00	5.00 to 6.00	Cc1c(N2C[C@H](C)N[C@@H](C)C2)cnc2nc(-c3cc4cn(C)nc4c(C)c3O)ccc12 [Compound 395, 5-{6-[(3S,5S)-3,5-dimethylpiperazin-1-yl]-5-methyl-1,8-naphthyridin-2-yl}-2,7-dimethylindazol-6-ol]	1000 to 10000 nM	100 to 1000 nM	B (100-1000 nM)	–
< 5.00	< 5.00	> 7.00	> 7.00	5.00 to 6.00	C[C@H]1CN(c2cnc3nc(-c4cc(F)c5nn(C)cc5c4)ccc3c2Cl)CCN1 [Compound 385, 5-chloro-2-(7-fluoro-2-methylindazol-5-yl)-6-[(3S)-3-methylpiperazin-1-yl]-1,8-naphthyridine]	1000 to 10000 nM	100 to 1000 nM	A (<100 nM)	–
< 5.00	< 5.00	6.00 to 7.00	6.00 to 7.00	5.00 to 6.00	C[C@@H]1CN(c2cnc3nc(-c4cc(F)c5nn(C)cc5c4)ccc3c2Cl)C[C@H](C)N1 [Compound 391]	1000 to 10000 nM	100 to 1000 nM	B (100-1000 nM)	–
6.00 to 7.00	6.00 to 7.00	> 7.00	> 7.00	5.00 to 6.00	Cc1c(O)c(-c2cc(C#N)c3cc(N4C[C@H](C)N[C@@H](C)C4)cnc3n2)cc2cn(C)nc12 [Compound 384, 6-[(3S,5S)-3,5-dimethylpiperazin-1-yl]-2-(6-hydroxy-2,7-dimethylindazol-5-yl)-1,8-naphthyridine-4-carbonitrile]	100 to 1000 nM	< 100 nM	A (<100 nM)	–

From patent US20250326748A1, “COMPOUNDS AND METHODS FOR MODULATING SPLICING” (REMIX THERAPEUTICS INC., priority 2022, published 2025)
